We go through twelve molecules from patent US11713338B2, “Cyclic peptides multimers targeting α-4-β-7 integrin” (priority 2016, dated 2023).

This assay has as its target T1, integrin α4β7 (RPMI8866 human cells adhering to MAdCAM-1) (Homo sapiens, UniProt P13612+P26010).
T1 construct: RMP18866 cells, which express integrin α4β7; host or cells: RPMI8866
T1 sequence (P13612 34-1032): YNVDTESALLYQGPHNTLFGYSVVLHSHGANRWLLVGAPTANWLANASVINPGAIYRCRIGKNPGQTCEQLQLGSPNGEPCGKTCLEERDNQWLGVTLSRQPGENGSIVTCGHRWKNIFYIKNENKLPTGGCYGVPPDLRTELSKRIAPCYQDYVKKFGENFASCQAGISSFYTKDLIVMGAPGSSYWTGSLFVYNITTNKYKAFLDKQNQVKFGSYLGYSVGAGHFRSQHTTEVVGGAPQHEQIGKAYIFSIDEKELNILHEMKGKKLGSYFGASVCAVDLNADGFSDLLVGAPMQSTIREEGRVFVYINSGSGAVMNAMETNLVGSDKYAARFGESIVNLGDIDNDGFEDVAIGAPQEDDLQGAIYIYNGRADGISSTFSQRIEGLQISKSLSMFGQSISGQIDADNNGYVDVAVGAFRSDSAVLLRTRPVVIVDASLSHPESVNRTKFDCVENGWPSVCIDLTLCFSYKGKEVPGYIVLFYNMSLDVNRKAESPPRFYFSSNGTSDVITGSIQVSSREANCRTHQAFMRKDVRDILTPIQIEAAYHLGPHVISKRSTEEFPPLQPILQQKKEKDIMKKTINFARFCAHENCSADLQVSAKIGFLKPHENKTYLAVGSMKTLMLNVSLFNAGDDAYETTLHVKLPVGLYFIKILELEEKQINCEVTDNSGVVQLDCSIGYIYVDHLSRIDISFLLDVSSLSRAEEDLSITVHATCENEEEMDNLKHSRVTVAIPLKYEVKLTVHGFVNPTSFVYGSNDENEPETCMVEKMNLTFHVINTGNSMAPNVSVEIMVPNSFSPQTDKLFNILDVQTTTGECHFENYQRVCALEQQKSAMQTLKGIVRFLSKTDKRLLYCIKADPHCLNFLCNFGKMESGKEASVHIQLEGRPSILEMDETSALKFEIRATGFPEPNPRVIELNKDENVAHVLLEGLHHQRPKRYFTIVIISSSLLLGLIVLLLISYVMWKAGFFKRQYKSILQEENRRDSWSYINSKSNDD
T1 sequence (P26010 20-798): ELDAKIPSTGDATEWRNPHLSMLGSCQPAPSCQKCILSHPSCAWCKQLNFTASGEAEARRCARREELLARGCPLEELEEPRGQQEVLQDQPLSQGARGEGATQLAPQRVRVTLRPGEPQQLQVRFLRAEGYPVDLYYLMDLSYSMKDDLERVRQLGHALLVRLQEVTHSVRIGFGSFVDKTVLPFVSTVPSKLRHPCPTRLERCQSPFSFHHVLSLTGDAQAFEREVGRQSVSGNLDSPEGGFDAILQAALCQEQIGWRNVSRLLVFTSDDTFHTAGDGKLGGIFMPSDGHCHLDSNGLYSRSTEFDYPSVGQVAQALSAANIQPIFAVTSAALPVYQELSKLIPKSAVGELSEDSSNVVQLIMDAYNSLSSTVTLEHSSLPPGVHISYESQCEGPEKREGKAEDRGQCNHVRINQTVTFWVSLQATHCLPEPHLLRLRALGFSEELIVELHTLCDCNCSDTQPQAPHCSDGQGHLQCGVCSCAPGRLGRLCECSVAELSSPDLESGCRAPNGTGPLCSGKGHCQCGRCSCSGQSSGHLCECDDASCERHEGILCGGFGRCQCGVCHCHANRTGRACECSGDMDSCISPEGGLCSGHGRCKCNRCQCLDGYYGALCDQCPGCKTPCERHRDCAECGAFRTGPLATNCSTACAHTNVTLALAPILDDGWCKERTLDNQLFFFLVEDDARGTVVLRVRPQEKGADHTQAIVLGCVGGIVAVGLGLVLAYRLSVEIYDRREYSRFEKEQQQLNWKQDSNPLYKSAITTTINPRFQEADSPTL
Put plainly: Integrin α4β7-MAdCAM cell adhesion assay (RPMI8866 cells). Format: cell-based. The note with it: RPMI8866 cells adhering to MAdCAM; read-out: RPMI8866 Adhesion α4β7/MAdCAM IC50. In short, it runs like this:
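Adhesion was read by calcein fluorescence. RPMI8866 cells were labelled at 10 million cells/ml with […] calcein (37° C., 30 min) and washed twice in PBS before reading. Dose-response values were corrected by subtracting cell-free control well fluorescence.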
For the molecule `CC(C)C[C@@H]1NC(=O)c2ccc(-c3ccc(N4CCN(C(=O)CCOCCOCCOCCOCCOCCOCCOCCOCCOCCOCCC(=O)N5CCN(c6ccc(-c7ccc8cc7CNC(=O)[C@@H]7CCCN7[C@H](C(=O)NC(C)(C)C)[C@H](C)NC(=O)[C@H]([C@@H](C)O)NC(=O)[C@H](CC(=O)O)NC(=O)[C@H](CC(C)C)NC8=O)cc6)CC5)CC4)cc3)c(c2)CNC(=O)[C@@H]2CCCN2[C@H](C(=O)NC(C)(C)C)[C@H](C)NC(=O)[C@H]([C@@H](C)O)NC(=O)[C@H](CC(=O)O)NC1=O` [Compound 511], the IC50 is 0.03 µM.

Turning to `CC(C)C[C@@H]1NC(=O)c2ccc(-c3ccc(N4CCN(C(=O)CC[C@H](N)C(=O)N5CCN(c6ccc(-c7ccc8cc7CNC(=O)[C@@H]7CCCN7[C@H](C(=O)NC(C)(C)C)[C@H](C)NC(=O)[C@H]([C@@H](C)O)NC(=O)[C@H](CC(=O)O)NC(=O)[C@H](CC(C)C)NC8=O)cc6)CC5)CC4)cc3)c(c2)CNC(=O)[C@@H]2CCCN2[C@H](C(=O)NC(C)(C)C)[C@H](C)NC(=O)[C@H]([C@@H](C)O)NC(=O)[C@H](CC(=O)O)NC1=O` [Compound 494], the IC50 came to 0.05 µM.

In the case of `CC(C)C[C@@H]1NC(=O)c2ccc(-c3ccc(N4CCN(C(=O)C[C@@H](N)C(=O)N5CCN(c6ccc(-c7ccc8cc7CNC(=O)[C@@H]7CCCN7[C@H](C(=O)NC(C)(C)C)[C@H](C)NC(=O)[C@H]([C@@H](C)O)NC(=O)[C@H](CC(=O)O)NC(=O)[C@H](CC(C)C)NC8=O)cc6)CC5)CC4)cc3)c(c2)CNC(=O)[C@@H]2CCCN2[C@H](C(=O)NC(C)(C)C)[C@H](C)NC(=O)[C@H]([C@@H](C)O)NC(=O)[C@H](CC(=O)O)NC1=O` [Compound 493], the IC50 was 0.045 µM. Under `CC(C)C[C@@H]1NC(=O)c2ccc(-c3ccc(N4CCN(C(=O)[C@H](CCCCNC(=O)CCCCCC(=O)NCCCC[C@H](NC(=O)OCc5ccccc5)C(=O)N5CCN(c6ccc(-c7ccc8cc7CNC(=O)[C@@H]7CCCN7[C@H](C(=O)NC(C)(C)C)[C@H](C)NC(=O)[C@H]([C@@H](C)O)NC(=O)[C@H](CC(=O)O)NC(=O)[C@H](CC(C)C)NC8=O)cc6)CC5)NC(=O)OCc5ccccc5)CC4)cc3)c(c2)CNC(=O)[C@@H]2CCCN2[C@H](C(=O)NC(C)(C)C)[C@H](C)NC(=O)[C@H]([C@@H](C)O)NC(=O)[C@H](CC(=O)O)NC1=O` [Compound 498] stands 0.036 µM; under `CC(C)C[C@@H]1NC(=O)C[C@H](CCCCN)N(C)C(=O)[C@H](CCCCNC(=O)c2cc(C(=O)NCCCC[C@@H]3NC(=O)[C@@H]4CCCN4[C@H](C(=O)NC(C)(C)C)[C@H](C)NC(=O)[C@H]([C@@H](C)O)NC(=O)[C@H](CC(=O)O)NC(=O)[C@H](CC(C)C)NC(=O)C[C@H](CCCCN)N(C)C3=O)cc(C(=O)NCCCC[C@@H]3NC(=O)[C@@H]4CCCN4[C@H](C(=O)NC(C)(C)C)[C@H](C)NC(=O)[C@H]([C@@H](C)O)NC(=O)[C@H](CC(=O)O)NC(=O)[C@H](CC(C)C)NC(=O)C[C@H](CCCCN)N(C)C3=O)c2)NC(=O)[C@@H]2CCCN2[C@H](C(=O)NC(C)(C)C)[C@H](C)NC(=O)[C@H]([C@@H](C)O)NC(=O)[C@H](CC(=O)O)NC1=O` [Compound 538], 0.013 µM; under `CC(C)C[C@@H]1NC(=O)c2ccc(-c3ccc(N4CCN(C(=O)C56CC7CC(C5)CC(C(=O)N5CCN(c8ccc(-c9ccc%10cc9CNC(=O)[C@@H]9CCCN9[C@H](C(=O)NC(C)(C)C)[C@H](C)NC(=O)[C@H]([C@@H](C)O)NC(=O)[C@H](CC(=O)O)NC(=O)[C@H](CC(C)C)NC%10=O)cc8)CC5)(C7)C6)CC4)cc3)c(c2)CNC(=O)[C@@H]2CCCN2[C@H](C(=O)NC(C)(C)C)[C@H](C)NC(=O)[C@H]([C@@H](C)O)NC(=O)[C@H](CC(=O)O)NC1=O` [Compound 460], 0.062 µM. The same measure for `CC(C)C[C@@H]1NC(=O)c2ccc(-c3ccc(N4CCN(C(=O)c5cc(-c6ccccc6)c(C(=O)N6CCN(c7ccc(-c8ccc9cc8CNC(=O)[C@@H]8CCCN8[C@H](C(=O)NC(C)(C)C)[C@H](C)NC(=O)[C@H]([C@@H](C)O)NC(=O)[C@H](CC(=O)O)NC(=O)[C@H](CC(C)C)NC9=O)cc7)CC6)cc5-c5ccccc5)CC4)cc3)c(c2)CNC(=O)[C@@H]2CCCN2[C@H](C(=O)NC(C)(C)C)[C@H](C)NC(=O)[C@H]([C@@H](C)O)NC(=O)[C@H](CC(=O)O)NC1=O` [Compound 469]: 0.005 µM; for `CC(C)C[C@@H]1NC(=O)c2ccc(-c3ccc(N4CCN(C(=O)CCCCCCCCCCC(=O)N5CCN(c6ccc(-c7ccc8cc7CNC(=O)[C@@H]7CCCN7[C@H](C(=O)NC(C)(C)C)[C@H](C)NC(=O)[C@H]([C@@H](C)O)NC(=O)[C@H](CC(=O)O)NC(=O)[C@H](CC(C)C)NC8=O)cc6)CC5)CC4)cc3)c(c2)CNC(=O)[C@@H]2CCCN2[C@H](C(=O)NC(C)(C)C)[C@H](C)NC(=O)[C@H]([C@@H](C)O)NC(=O)[C@H](CC(=O)O)NC1=O` [Compound 392]: 0.028 µM.

On to `CC(C)C[C@@H]1NC(=O)c2ccc(-c3ccc(N4CCN(C(=O)c5ccc(-c6cccc(C(=O)N7CCN(c8ccc(-c9ccc%10cc9CNC(=O)[C@@H]9CCCN9[C@H](C(=O)NC(C)(C)C)[C@H](C)NC(=O)[C@H]([C@@H](C)O)NC(=O)[C@H](CC(=O)O)NC(=O)[C@H](CC(C)C)NC%10=O)cc8)CC7)n6)nc5)CC4)cc3)c(c2)CNC(=O)[C@@H]2CCCN2[C@H](C(=O)NC(C)(C)C)[C@H](C)NC(=O)[C@H]([C@@H](C)O)NC(=O)[C@H](CC(=O)O)NC1=O` [Compound 466], for which the IC50 amounted to 0.097 µM. The same measure for `CC(C)C[C@@H]1NC(=O)c2ccc(-c3ccc(N4CCN(C(=O)c5cc(C(=O)N6CCN(c7ccc(-c8ccc9cc8CNC(=O)[C@@H]8CCCN8[C@H](C(=O)NC(C)(C)C)[C@H](C)NC(=O)[C@H]([C@@H](C)O)NC(=O)[C@H](CC(=O)O)NC(=O)[C@H](CC(C)C)NC9=O)cc7)CC6)cc(C(=O)N6CCN(c7ccc(-c8ccc9cc8CNC(=O)[C@@H]8CCCN8[C@H](C(=O)NC(C)(C)C)[C@H](C)NC(=O)[C@H]([C@@H](C)O)NC(=O)[C@H](CC(=O)O)NC(=O)[C@H](CC(C)C)NC9=O)cc7)CC6)c5)CC4)cc3)c(c2)CNC(=O)[C@@H]2CCCN2[C@H](C(=O)NC(C)(C)C)[C@H](C)NC(=O)[C@H]([C@@H](C)O)NC(=O)[C@H](CC(=O)O)NC1=O` [Compound 520]: 0.006 µM. Under `CC(C)C[C@@H]1NC(=O)c2ccc(-c3ccc(N4CCN(Cc5cccc(CN6CCN(c7ccc(-c8ccc9cc8CNC(=O)[C@@H]8CCCN8[C@H](C(=O)NC(C)(C)C)[C@H](C)NC(=O)[C@H]([C@@H](C)O)NC(=O)[C@H](CC(=O)O)NC(=O)[C@H](CC(C)C)NC9=O)cc7)CC6)c5)CC4)cc3)c(c2)CNC(=O)[C@@H]2CCCN2[C@H](C(=O)NC(C)(C)C)[C@H](C)NC(=O)[C@H]([C@@H](C)O)NC(=O)[C@H](CC(=O)O)NC1=O` [Compound 499] stands 0.042 µM. As for `CC(C)C[C@@H]1NC(=O)c2ccc(-c3ccc(N4CCN(C(=O)c5cc(F)ccc5-c5ccc(F)cc5C(=O)N5CCN(c6ccc(-c7ccc8cc7CNC(=O)[C@@H]7CCCN7[C@H](C(=O)NC(C)(C)C)[C@H](C)NC(=O)[C@H]([C@@H](C)O)NC(=O)[C@H](CC(=O)O)NC(=O)[C@H](CC(C)C)NC8=O)cc6)CC5)CC4)cc3)c(c2)CNC(=O)[C@@H]2CCCN2[C@H](C(=O)NC(C)(C)C)[C@H](C)NC(=O)[C@H]([C@@H](C)O)NC(=O)[C@H](CC(=O)O)NC1=O` [Compound 475], the IC50 was found to be 0.018 µM.
